Laboratory results as given in ChEMBL document CHEMBL1201862, “PubChem BioAssay data set” (2004).
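Following 48 hours of exposure in 96-well plates, responses at five concentrations were used to interpolate endpoints linearly. GI50 marks 50% less growth.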 Active and inactive are the calls of the source. Rule as the data show it: active = GI50 up to about 1.1 µM and inactive = higher.

Legend:
Test in all cases: growth of human tumour cells (NCI), 48 h
[1] = test system: BT-549
[2] = test system: NCI/ADR-RES
[3] = test system: SNB-78
[4] = test system: LXFL 529
[5] = test system: DLD-1
[6] = test system: HOP-18
[7] = test system: M19-MEL
[8] = test system: XF498

SMILES	GI50 [1]	GI50 [2]	GI50 [3]	GI50 [4]	GI50 [5]	GI50 [6]	GI50 [7]	GI50 [8]
CN(C)S(=O)(=O)Nc1ccccn1	> 100 µM (inactive)	> 100 µM (inactive)	–	–	–	–	–	–
O=C(O)C(Sc1ccc(Cl)cc1)Sc1ccc(Cl)cc1	54.5 µM (inactive)	47.3 µM (inactive)	–	–	–	–	–	–
O=C(O)CN1C(=O)CN=C(c2ccccn2)c2cc(Cl)ccc21	> 100 µM (inactive)	> 100 µM (inactive)	–	–	–	–	–	–
OC(c1ccccc1)(c1ccccc1)c1nccc2ccccc12	14.3 µM (inactive)	34.6 µM (inactive)	–	–	–	–	–	–
O=C1c2ccccc2C(=O)c2c(Nc3ccc4c5c(cccc35)C(=O)c3ccccc3-4)cccc21	> 100 µM (inactive)	> 100 µM (inactive)	–	–	–	–	–	–
Cc1ncc([N+](=O)[O-])n1CCN=[N+]=[N-]	> 100 µM (inactive)	> 100 µM (inactive)	–	–	–	–	–	–
Nc1ccccc1C(=O)NC(=O)Nc1ccc(Oc2ncc(Br)cn2)c(Cl)c1	2.48 µM (inactive)	< 0.01 µM (active)	< 0.12 µM (active)	< 0.01 µM (active)	< 0.01 µM (active)	13 µM (inactive)	< 0.01 µM (active)	–
C=C(C)CC(C(=O)O)c1ccc(C)cc1 (stereo not given)	–	–	> 100 µM (inactive)	–	> 100 µM (inactive)	> 100 µM (inactive)	> 100 µM (inactive)	> 100 µM (inactive)
NC(=O)/N=C1\NC(Cc2ccccc2)C(=O)N1Cc1ccccc1 (stereo not given)	–	–	> 100 µM (inactive)	> 100 µM (inactive)	> 100 µM (inactive)	–	> 100 µM (inactive)	35.6 µM (inactive)
CC(C)(C)OC/C=C1\C(=O)O[C@H]2C[C@@H](O[Si](C)(C)C(C)(C)C)C[C@@H]12	> 100 µM (inactive)	88.1 µM (inactive)	–	–	–	–	–	–
C#CCN(N=O)C(=O)NC(CCCNC(=O)OCc1ccccc1)C(=O)OCc1ccccc1 (stereo not given)	–	–	> 100 µM (inactive)	72.9 µM (inactive)	57.1 µM (inactive)	–	> 100 µM (inactive)	18 µM (inactive)
O=C(CCCN1CCC2(CC1)CC(=O)N(N1CCOCC1)C2=O)c1ccccc1	14.6 µM (inactive)	> 100 µM (inactive)	–	–	–	–	–	–
CCOC(=O)c1cccc(/N=N/Nc2cccc(C(=O)OCC)c2)c1	> 100 µM (inactive)	56.9 µM (inactive)	–	–	–	–	–	–
COc1cc(OC)c2nc3occc3c(OC)c2c1	> 100 µM (inactive)	> 100 µM (inactive)	–	–	–	–	–	–
N=C(N)N/N=C(\c1ccc(F)cc1)c1ccc(C(F)(F)F)cc1	0.593 µM (active)	0.344 µM (active)	–	–	–	–	–	–
O=C(Nc1nc(C23CC4CC(CC(C4)C2)C3)cs1)c1cc2cc(Cl)ccc2oc1=O	–	> 100 µM (inactive)	–	–	–	–	–	–
Sc1nnc(-c2ccccc2)n1/N=C\c1ccc(-c2ccc(Cl)cc2)o1	–	–	> 100 µM (inactive)	> 100 µM (inactive)	> 100 µM (inactive)	–	> 100 µM (inactive)	–
COc1ccccc1C(C1=C(O)COC1=O)c1cc2c(cc1OC(C)=O)OCO2 (stereo not given)	> 100 µM (inactive)	> 100 µM (inactive)	–	–	–	–	–	–
O=C(c1ccccc1)c1nnc(C(=O)c2ccccc2)nn1	–	–	170 µM (inactive)	266 µM (inactive)	> 344 µM (inactive)	> 344 µM (inactive)	> 344 µM (inactive)	–
CCOc1cccc2cccnc12	–	–	–	> 100 µM (inactive)	> 100 µM (inactive)	57.5 µM (inactive)	–	> 100 µM (inactive)
CNC(=O)NC(CCCCNC(=O)OCc1ccccc1)C(=O)OCc1ccccc1 (stereo not given)	> 78.2 µM (inactive)	> 100 µM (inactive)	33.4 µM (inactive)	33.9 µM (inactive)	> 100 µM (inactive)	–	17 µM (inactive)	15.2 µM (inactive)
COc1cc2c(cc1OC)C(=O)/C(=C/c1ccccc1)C2	> 100 µM (inactive)	> 66.2 µM (inactive)	–	–	–	–	–	–
N#C/C(=C\c1ccc(F)cc1)c1nc2ccccc2c(=O)[nH]1	36.8 µM (inactive)	> 100 µM (inactive)	–	–	–	–	–	–
O=c1[nH]nc(-c2ccccc2)n1/N=C\CC/C=N\n1c(-c2ccccc2)n[nH]c1=O	19.2 µM (inactive)	38.5 µM (inactive)	–	–	–	–	–	–
N#Cc1c(N)c2c(c(-c3ccccc3)c1-c1ccccc1)C(=O)N(NC(=O)c1ccccc1)C2=O	> 100 µM (inactive)	89.5 µM (inactive)	–	–	–	–	–	–
CC(=O)ON(C(C)=O)C1C(COC(c2ccccc2)(c2ccccc2)c2ccccc2)OC2OC3(CCCC3)OC21 (stereo not given)	–	–	–	–	5.32 µM (inactive)	49.3 µM (inactive)	6.62 µM (inactive)	5.19 µM (inactive)
CN(C)CN(C)c1nc(N(C)C)nc(N(C)C)n1	–	–	> 100 µM (inactive)	84.7 µM (inactive)	> 100 µM (inactive)	> 100 µM (inactive)	> 100 µM (inactive)	> 100 µM (inactive)
